From US11999727B2 (Tango Therapeutics, Inc., priority 2020, dated 2024) come the findings set out here.

Assay [1] has as its target T1, PRMT5 (Homo sapiens, UniProt O14744).
T1 construct: purchased Viva (custom protein)
Briefly: PRMT5 biochemical IC50 assay with SAM as cofactor. The note with it: PRMT5, SAM as cofactor; read-out: SAM IC50.

The target in assay [2] is T1, PRMT5. In words: PRMT5 biochemical IC50 assay with no cofactor. The note with it: PRMT5, no cofactor. An excerpt:
Table 1 indicates IC50 values (μM) against PRMT5 for exemplary compounds in the presence of SAM as cofactor, with no cofactor, and with MTA as cofactor, respectively (columns 4-6). […] Ki values can be calculated from the IC50 values as described in the Examples section. As detailed in the Examples section, for the assay performed in the presence of SAM, IC50=Ki×1.5 (Ki=IC50/1.5).

Assay [3] relates to HAP1 MTAP-intact cell line. In words: SDMA in-cell western assay, HAP1 MTAP-intact. It counts as cell-based. Conditions: Homo sapiens, HAP1, SDMA in-cell western, HAP1 MTAP-intact; read-out: MTAP HAP1 intact IC50. An outline of the steps: (§1)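 MTAP-null vs endogenous-MTAP HAP1 isogenic cells; in-cell western SDMA readout; IC50 per line.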
Assay [4] concerns HAP1 MTAP-deleted cell line. Briefly: SDMA in-cell western assay, HAP1 MTAP-deleted. Type of assay: cell-based. The note with it: for IC50: Homo sapiens, HAP1, SDMA in-cell western, HAP1 MTAP-deleted; for MTAP intact/deleted ratio: SDMA in-cell western. In short, it runs like this:
as §1

For assay [5], the system named is HAP1 MTAP-deleted cell line. Briefly: Viability assay, MTAP-deleted cell line. It counts as cell-based. The note with it: Homo sapiens, read-out: HAP1 MTAP deleted viability. An excerpt: Table 1 additionally indicates IC50 values in a viability assay for the MTAP-deleted cell line (column 10), indicating the effect of treatment with compound on cell survival.

The target of assay [6] is T1, PRMT5. Briefly: PRMT5 biochemical IC50 assay with MTA as cofactor. The note with it: PRMT5, MTA as cofactor; read-out: MTA IC50.
Where [7] appears, read: read-out: HAP1 MTAP deleted IC50.
The mark [8] stands for this setting: HAP1, viability assay, MTAP-deleted cell line.
The mark [9] stands for this setting: read-out: HAP 1 MTAP deleted IC50.
The mark [10] stands for this setting: IC50 ratio HAP1 MTAP-intact / HAP1 MTAP-deleted.
The mark [11] stands for this setting: read-out: No Cofactor/ rel IC50.
Setting [12] is: HAP1, viability IC50, MTAP-deleted cell line.
The mark [13] stands for this setting: IC50 ratio HAP1 MTAP-intact vs HAP1 MTAP-deleted.

The structures appear in SMILES notation. Where only a bound is given, the exact number is not on record here.

T1 sequence (O14744 whole entry): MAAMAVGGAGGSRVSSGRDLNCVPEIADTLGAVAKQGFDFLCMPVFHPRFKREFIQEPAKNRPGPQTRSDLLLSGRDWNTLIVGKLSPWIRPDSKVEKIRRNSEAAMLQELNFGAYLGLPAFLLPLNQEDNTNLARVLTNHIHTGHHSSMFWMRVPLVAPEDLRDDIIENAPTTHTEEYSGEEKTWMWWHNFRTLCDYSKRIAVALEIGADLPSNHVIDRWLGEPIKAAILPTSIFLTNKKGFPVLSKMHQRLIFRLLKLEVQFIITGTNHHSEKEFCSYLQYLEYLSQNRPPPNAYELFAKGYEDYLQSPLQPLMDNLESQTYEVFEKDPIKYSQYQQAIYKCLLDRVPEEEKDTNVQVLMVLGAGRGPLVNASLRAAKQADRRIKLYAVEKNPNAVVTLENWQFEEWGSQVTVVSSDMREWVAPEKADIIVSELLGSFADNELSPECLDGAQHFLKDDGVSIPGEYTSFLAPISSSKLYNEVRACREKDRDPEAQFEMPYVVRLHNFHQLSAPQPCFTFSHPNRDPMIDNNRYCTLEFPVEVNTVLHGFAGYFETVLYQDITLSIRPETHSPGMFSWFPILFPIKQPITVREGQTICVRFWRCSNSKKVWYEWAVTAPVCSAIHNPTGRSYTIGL
T1 sequence (Q9BQA1 whole entry partner): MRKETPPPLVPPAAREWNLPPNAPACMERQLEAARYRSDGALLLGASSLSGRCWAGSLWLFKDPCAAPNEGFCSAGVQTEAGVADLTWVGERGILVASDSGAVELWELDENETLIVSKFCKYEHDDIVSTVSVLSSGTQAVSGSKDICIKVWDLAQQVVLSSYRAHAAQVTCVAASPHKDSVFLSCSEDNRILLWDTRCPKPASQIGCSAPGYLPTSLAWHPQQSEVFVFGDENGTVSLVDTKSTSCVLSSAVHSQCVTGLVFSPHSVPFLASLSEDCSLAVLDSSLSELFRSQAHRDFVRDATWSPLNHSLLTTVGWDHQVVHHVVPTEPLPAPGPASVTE

Take `CCc1cc(NC(=O)C(=O)N2C[C@H](C)CC[C@H]2c2ccc3sc(CCN(C)C)nc3c2)cnc1N` (single isomer, unassigned) [Compound 1133]: the IC50 is over 500 nM at PRMT5 [1]; over 500 nM on PRMT5 [2] (read-out: No Cofactor/rel IC50); over 1000 nM in assay [3]; over 1000 nM in assay [4] (setting [7]); 1000 to 10000 nM in assay [5] (setting [8]); over 500 nM on PRMT5 [6].

For `C[C@H]1CC[C@H](c2ccc(F)cc2)N(C(=O)C(=O)Nc2cnc(N)c(OC(F)F)c2)C1` [Compound 1026, N-[6-amino-5-(difluoromethoxy)-3-pyridyl]-2-[(2R,5S)-2-(4-fluorophenyl)-5-methyl-1-piperidyl]-2-oxo-acetamide], the IC50 at PRMT5 [1] is 50 to 500 nM; on PRMT5 [2] (read-out: No Cofactor/rel IC50), 50 to 500 nM; in assay [3], over 1000 nM; in assay [4] (setting [9]), 100 to 1000 nM; in assay [5] (setting [8]) it was 1000 to 10000 nM; at PRMT5 [6] it was under 50 nM. Besides, in assay [4] (setting [10]), the MTAP intact/deleted ratio result is recorded as “A (an IC50 ratio greater than or equal to 10 fold)”.

For `Cc1cncc(NC(=O)C(=O)N2C[C@H](C)CC[C@H]2c2ccnc(C)c2)c1` (racemic) [Compound 14, 2-[(2S,5R)-5-methyl-2-(2-methyl-4-pyridyl)-1-piperidyl]-N-(5-methyl-3-pyridyl)-2-oxo-acetamide], the IC50 on PRMT5 [1] is 50 to 500 nM; at PRMT5 [2] (setting [11]), over 500 nM; in assay [3] it was over 1000 nM; in assay [4] (setting [9]), over 1000 nM; in assay [5] (setting [8]), over 10000 nM; on PRMT5 [6] it was 50 to 500 nM. Further, in assay [4] (setting [10]), the “MTAP intact/deleted ratio” value is “C (an IC50 ratio of less than 3 fold)”.

`C[C@@H]1CC[C@@H](c2ccn(-c3cc[nH]n3)n2)N(C(=O)C(=O)Nc2cncc(C(N)=O)c2)C1` (single isomer, unassigned) [Compound 899]: the IC50 on PRMT5 [1] is 50 to 500 nM; on PRMT5 [2] (read-out: No Cofactor/rel IC50) it was 50 to 500 nM; in assay [3] it was over 1000 nM; in assay [4] (setting [9]), 100 to 1000 nM; in assay [5] (setting [8]), 1000 to 10000 nM; at PRMT5 [6], under 50 nM. Besides, in assay [4] (setting [10]), the MTAP intact/deleted ratio entry is “A (an IC50 ratio greater than or equal to 10 fold)”.

As for `Cc1cc(NC(=O)C(=O)N2C[C@H](C)CC[C@H]2c2ccc3c(c2)CNC3=O)cnc1N` (single isomer, unassigned) [Compound 581], the IC50 is under 50 nM at PRMT5 [1]; 50 to 500 nM at PRMT5 [2] (read-out: No Cofactor/rel IC50); 100 to 1000 nM in assay [3]; under 100 nM in assay [4] (setting [9]); 1000 to 10000 nM in assay [5] (setting [12]); 50 to 500 nM at PRMT5 [6]. In addition, in assay [4] (setting [10]), the MTAP intact/deleted ratio entry was “A (an IC50 ratio greater than or equal to 10 fold)”.

Regarding `C[C@@H]1CC[C@H](c2ccccc2)N(C(=O)C(=O)Nc2cncc(C(N)=O)c2)[C@@H]1C` (racemic) [Compound 163, rac-5-[[2-[(2R,3R,6R)-2,3-dimethyl-6-phenyl-1-piperidyl]-2-oxo-acetyl]amino]pyridine-3-carboxamide], the IC50 on PRMT5 [1] was 50 to 500 nM; on PRMT5 [2] (setting [11]), 50 to 500 nM; in assay [3] it was over 1000 nM; in assay [4] (setting [9]), 100 to 1000 nM; in assay [5] (setting [8]) it was over 10000 nM; on PRMT5 [6] it was under 50 nM. Besides, in assay [4] (setting [10]), the “MTAP intact/deleted ratio” value was “A (an IC50 ratio greater than or equal to 10 fold)”.

As for `Cc1ncc(NC(=O)C(=O)N2C[C@@H](C)CC[C@@H]2c2ccc3sc(C4CCN(C)CC4)nc3c2)cc1Cl` [Compound 1102, N-(5-chloro-6-methylpyridin-3-yl)-2-((2R,5S)-5-methyl-2-(2-(1-methylpiperidin-4-yl)benzo[d]thiazol-5-yl)piperidin-1-yl)-2-oxoacetamide], the IC50 on PRMT5 [1] is under 50 nM; on PRMT5 [2] (read-out: No Cofactor/rel IC50), under 50 nM; in assay [3], 100 to 1000 nM; in assay [4] (setting [7]), under 100 nM; in assay [5] (setting [8]), under 1000 nM; at PRMT5 [6] it was under 50 nM. In addition, the MTAP intact/deleted ratio result in assay [4] (setting [13]) was “A (an IC50 ratio greater than or equal to 10 fold)”.

On to `Cc1cc(NC(=O)C(=O)N2C[C@H](C)CC[C@H]2c2ccsc2)cnc1N` (racemic) [Compound 977, rac-N-(6-Amino-5-methyl-3-pyridyl)-2-[(2R,5S)-5-methyl-2-(3-thienyl)-1-piperidyl]-2-oxo-acetamide], for which the IC50 on PRMT5 [1] is 50 to 500 nM; on PRMT5 [2] (read-out: No Cofactor/rel IC50), 50 to 500 nM; in assay [3] it was 100 to 1000 nM; in assay [4] (setting [9]), under 100 nM; in assay [5] (setting [8]), 1000 to 10000 nM; on PRMT5 [6], 50 to 500 nM. Also, the MTAP intact/deleted ratio result in assay [4] (setting [10]) is listed as “B (an IC50 ratio greater than or equal to 3 fold but lower than 10 fold)”.

Consider `C[C@@H]1CC[C@@H](c2ccc(NCC(F)(F)F)cc2)N(C(=O)C(=O)Nc2cncc(C(N)=O)c2)C1` (single isomer, unassigned) [Compound 455], for which the IC50 on PRMT5 [1] was 50 to 500 nM; at PRMT5 [2] (read-out: No Cofactor/rel IC50), 50 to 500 nM; in assay [3], over 1000 nM; in assay [4] (setting [7]) it was 100 to 1000 nM; in assay [5] (setting [8]), 1000 to 10000 nM; on PRMT5 [6] it was under 50 nM. In addition, the MTAP intact/deleted ratio result in assay [4] (setting [10]) is listed as “A (an IC50 ratio greater than or equal to 10 fold)”.

Regarding `C[C@@H]1CC[C@@H](c2cccc(C(F)(F)F)c2)N(C(=O)C(=O)Nc2cncc(C(N)=O)c2)C1` (racemic) [Compound 265, rac-5-{2-[(2R,5S)-5-Methyl-2-[3-(trifluoromethyl)phenyl]piperidin-1-yl]-2-oxoacetamido}pyridine-3-carboxamide], the IC50 was 50 to 500 nM at PRMT5 [1]; 50 to 500 nM on PRMT5 [2] (read-out: No Cofactor/rel IC50); over 1000 nM in assay [3]; 100 to 1000 nM in assay [4] (setting [7]); 1000 to 10000 nM in assay [5] (setting [8]); under 50 nM on PRMT5 [6]. The MTAP intact/deleted ratio result in assay [4] (setting [10]) was “A (an IC50 ratio greater than or equal to 10 fold)”.

`CCc1cc(NC(=O)C(=O)N2C[C@@H](C)CC[C@@H]2c2ccc(NC3CCN(C)CC3)cc2)cnc1N` [Compound 1112, N-(6-Amino-5-ethyl-3-pyridyl)-2-[(2R,5S)-5-methyl-2-[4-[(1-methyl-4-piperidyl)amino]phenyl]-1-piperidyl]-2-oxo-acetamide]: the IC50 on PRMT5 [1] was 50 to 500 nM; on PRMT5 [2] (read-out: No Cofactor/rel IC50), under 50 nM; in assay [3] it was 100 to 1000 nM; in assay [4] (setting [7]) it was under 100 nM; in assay [5] (setting [8]), under 1000 nM; at PRMT5 [6] it was under 50 nM. Further, the MTAP intact/deleted ratio result in assay [4] (setting [13]) is “A (an IC50 ratio greater than or equal to 10 fold)”.

`Cc1cc(NC(=O)C(=O)N2C[C@@H](C)CC[C@@H]2c2ccc3sc([C@@H]4CCN(C)C(C)(C)C4)nc3c2)cnc1C` [Compound 1215, N-(5,6-dimethyl-3-pyridyl)-2-oxo-2-[(2R,5S)-5-methyl-2-[2-[(4R)-1,2,2-trimethyl-4-piperidyl]-1,3-benzothiazol-5-yl]-1-piperidyl]acetamide]: the IC50 is under 50 nM at PRMT5 [1]; under 50 nM at PRMT5 [2] (read-out: No Cofactor/rel IC50); 100 to 1000 nM in assay [3]; under 100 nM in assay [4] (setting [7]); under 1000 nM in assay [5] (setting [8]); under 50 nM at PRMT5 [6]. Besides, the MTAP intact/deleted ratio entry in assay [4] (setting [13]) is recorded as “A (an IC50 ratio greater than or equal to 10 fold)”.

As for `CNS(=O)(=O)c1ccc([C@@H]2CC[C@@H](C)CN2C(=O)C(=O)Nc2cncc(C(N)=O)c2)cc1` (racemic) [Compound 652, rac 5-[[2-[(2S,5R)-5-methyl-2-[4-(methylsulfamoyl)phenyl]-1-piperidyl]-2-oxo-acetyl]amino]pyridine-3-carboxamide], the IC50 was 50 to 500 nM at PRMT5 [1]; 50 to 500 nM on PRMT5 [2] (read-out: No Cofactor/rel IC50); over 1000 nM in assay [3]; over 1000 nM in assay [4] (setting [9]); over 10000 nM in assay [5] (setting [12]); 50 to 500 nM on PRMT5 [6]. Besides, the MTAP intact/deleted ratio entry in assay [4] (setting [10]) is “C (an IC50 ratio of less than 3 fold)”.

Regarding `C[C@]1(F)CC[C@@H](c2ccccc2)N(C(=O)C(=O)Nc2cncc(C(N)=O)c2)C1` (single isomer, unassigned) [Compound 798, 5-(2-(5-fluoro-5-methyl-2-phenylpiperidin-1-yl)-2-oxoacetamido)nicotinamide], the IC50 at PRMT5 [1] is over 500 nM; on PRMT5 [2] (read-out: No Cofactor/rel IC50), over 500 nM; in assay [3], over 1000 nM; in assay [4] (setting [7]), over 1000 nM; in assay [5] (HAP1, viability assay, HAP1 MTAP-deleted), over 10000 nM; on PRMT5 [6] it was over 500 nM. Further, in assay [4] (setting [10]), the MTAP intact/deleted ratio result is “C (an IC50 ratio of less than 3 fold)”.

Regarding `C[C@@H]1CC[C@@H](c2cc3cn[nH]c3cc2F)N(C(=O)C(=O)Nc2cncc(C(N)=O)c2)C1` (single isomer, unassigned) [Compound 571], the IC50 on PRMT5 [1] was over 500 nM; on PRMT5 [2] (read-out: No Cofactor/rel IC50) it was over 500 nM; in assay [3], over 1000 nM; in assay [4] (setting [9]), over 1000 nM; in assay [5] (setting [12]), over 10000 nM; on PRMT5 [6], over 500 nM. The MTAP intact/deleted ratio entry in assay [4] (setting [10]) is given as “C (an IC50 ratio of less than 3 fold)”.
